Measurements taken from patent US6117841A, “Substituted peptidylamine calcium channel blockers” (Warner-Lambert Company, priority 1999, dated 2000).
Read-outs that look alike come from different tables or passages of the source.

Experiments:
[1] = target: T1, N-type Ca^2+ Channel (Homo sapiens, UniProt Q00975); assay: Measurement of N-type Ca2+ channel blocking potencies in IMR-32 cells using the fluorescent Ca2+ indicator Indo-1; type: cell-based; settings: IMR-32 cells
T1 construct: host or cells: IMR-32 cells differentiated with dibutyryl cAMP and bromodeoxyuridine
T1 sequence (Q00975 whole entry): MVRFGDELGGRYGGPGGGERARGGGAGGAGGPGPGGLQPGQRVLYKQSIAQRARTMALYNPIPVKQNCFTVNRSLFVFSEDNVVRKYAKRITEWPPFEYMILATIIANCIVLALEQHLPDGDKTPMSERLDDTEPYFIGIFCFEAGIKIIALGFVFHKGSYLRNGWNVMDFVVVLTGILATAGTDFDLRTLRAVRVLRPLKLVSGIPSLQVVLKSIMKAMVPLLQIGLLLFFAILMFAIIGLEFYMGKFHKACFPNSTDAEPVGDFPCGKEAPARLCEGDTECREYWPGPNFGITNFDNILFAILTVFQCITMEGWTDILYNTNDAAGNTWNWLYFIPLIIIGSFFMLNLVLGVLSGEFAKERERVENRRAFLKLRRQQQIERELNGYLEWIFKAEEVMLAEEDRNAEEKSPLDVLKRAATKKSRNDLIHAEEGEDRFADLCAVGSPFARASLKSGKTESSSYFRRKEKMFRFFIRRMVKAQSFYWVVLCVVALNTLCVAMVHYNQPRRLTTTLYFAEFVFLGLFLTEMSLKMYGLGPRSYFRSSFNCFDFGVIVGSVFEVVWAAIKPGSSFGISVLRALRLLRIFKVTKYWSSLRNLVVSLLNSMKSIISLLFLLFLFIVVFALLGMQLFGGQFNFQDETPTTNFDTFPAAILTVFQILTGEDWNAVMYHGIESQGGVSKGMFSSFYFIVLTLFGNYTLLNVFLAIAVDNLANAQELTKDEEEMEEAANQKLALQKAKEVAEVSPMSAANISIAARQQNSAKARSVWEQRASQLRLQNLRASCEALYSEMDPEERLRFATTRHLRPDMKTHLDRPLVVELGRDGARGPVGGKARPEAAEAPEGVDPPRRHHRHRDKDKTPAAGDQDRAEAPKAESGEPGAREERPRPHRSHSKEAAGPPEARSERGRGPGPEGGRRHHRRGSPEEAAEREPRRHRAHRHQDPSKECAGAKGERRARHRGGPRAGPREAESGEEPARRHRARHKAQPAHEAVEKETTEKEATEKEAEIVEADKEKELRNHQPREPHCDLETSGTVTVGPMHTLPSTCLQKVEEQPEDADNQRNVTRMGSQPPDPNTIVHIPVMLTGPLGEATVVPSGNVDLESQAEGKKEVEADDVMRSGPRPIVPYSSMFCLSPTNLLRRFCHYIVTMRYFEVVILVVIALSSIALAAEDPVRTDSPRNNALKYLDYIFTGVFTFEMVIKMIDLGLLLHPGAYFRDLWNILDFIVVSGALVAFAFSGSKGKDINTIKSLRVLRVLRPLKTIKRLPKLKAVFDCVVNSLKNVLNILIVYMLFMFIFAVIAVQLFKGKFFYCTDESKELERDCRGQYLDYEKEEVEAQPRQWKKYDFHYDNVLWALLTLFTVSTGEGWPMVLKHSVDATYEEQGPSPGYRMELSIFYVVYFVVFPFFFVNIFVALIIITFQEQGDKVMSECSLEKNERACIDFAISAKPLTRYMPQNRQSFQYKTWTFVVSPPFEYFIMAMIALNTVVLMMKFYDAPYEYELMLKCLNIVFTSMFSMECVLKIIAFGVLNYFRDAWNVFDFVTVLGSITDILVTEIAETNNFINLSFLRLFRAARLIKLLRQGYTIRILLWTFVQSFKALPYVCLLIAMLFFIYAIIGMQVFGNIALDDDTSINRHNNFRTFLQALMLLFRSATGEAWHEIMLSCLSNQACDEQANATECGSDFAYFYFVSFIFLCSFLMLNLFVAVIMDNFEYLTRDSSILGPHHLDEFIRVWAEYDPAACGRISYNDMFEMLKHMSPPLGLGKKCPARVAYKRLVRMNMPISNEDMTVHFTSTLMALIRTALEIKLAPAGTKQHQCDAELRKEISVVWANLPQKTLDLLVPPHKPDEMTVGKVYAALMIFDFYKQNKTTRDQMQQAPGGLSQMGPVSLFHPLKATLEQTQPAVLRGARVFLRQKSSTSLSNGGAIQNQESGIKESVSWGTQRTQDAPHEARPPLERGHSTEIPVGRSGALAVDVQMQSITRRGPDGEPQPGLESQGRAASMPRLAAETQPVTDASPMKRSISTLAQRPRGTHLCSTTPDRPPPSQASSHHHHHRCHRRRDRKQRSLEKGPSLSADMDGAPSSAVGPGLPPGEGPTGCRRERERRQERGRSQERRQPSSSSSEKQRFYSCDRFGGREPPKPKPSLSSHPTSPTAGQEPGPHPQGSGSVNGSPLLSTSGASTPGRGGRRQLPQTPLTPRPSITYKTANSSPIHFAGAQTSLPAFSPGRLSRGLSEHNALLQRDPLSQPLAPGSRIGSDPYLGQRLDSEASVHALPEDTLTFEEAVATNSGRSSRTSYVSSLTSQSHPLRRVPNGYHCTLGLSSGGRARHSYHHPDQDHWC
T1 sequence (P54284 whole entry partner): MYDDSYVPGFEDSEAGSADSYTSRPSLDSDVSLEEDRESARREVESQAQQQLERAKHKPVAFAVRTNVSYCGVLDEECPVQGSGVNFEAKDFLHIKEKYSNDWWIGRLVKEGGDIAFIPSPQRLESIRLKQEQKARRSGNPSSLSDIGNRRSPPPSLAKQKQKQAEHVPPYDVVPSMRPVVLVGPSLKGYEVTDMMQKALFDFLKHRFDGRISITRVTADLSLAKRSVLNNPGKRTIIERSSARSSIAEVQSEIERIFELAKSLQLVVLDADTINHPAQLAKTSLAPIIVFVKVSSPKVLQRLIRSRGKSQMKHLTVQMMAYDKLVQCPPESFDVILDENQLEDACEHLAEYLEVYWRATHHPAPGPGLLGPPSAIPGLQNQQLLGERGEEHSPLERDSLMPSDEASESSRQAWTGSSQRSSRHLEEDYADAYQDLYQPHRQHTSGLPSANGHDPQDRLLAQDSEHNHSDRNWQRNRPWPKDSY
T1 sequence (P54289 25-946 partner limits assumed): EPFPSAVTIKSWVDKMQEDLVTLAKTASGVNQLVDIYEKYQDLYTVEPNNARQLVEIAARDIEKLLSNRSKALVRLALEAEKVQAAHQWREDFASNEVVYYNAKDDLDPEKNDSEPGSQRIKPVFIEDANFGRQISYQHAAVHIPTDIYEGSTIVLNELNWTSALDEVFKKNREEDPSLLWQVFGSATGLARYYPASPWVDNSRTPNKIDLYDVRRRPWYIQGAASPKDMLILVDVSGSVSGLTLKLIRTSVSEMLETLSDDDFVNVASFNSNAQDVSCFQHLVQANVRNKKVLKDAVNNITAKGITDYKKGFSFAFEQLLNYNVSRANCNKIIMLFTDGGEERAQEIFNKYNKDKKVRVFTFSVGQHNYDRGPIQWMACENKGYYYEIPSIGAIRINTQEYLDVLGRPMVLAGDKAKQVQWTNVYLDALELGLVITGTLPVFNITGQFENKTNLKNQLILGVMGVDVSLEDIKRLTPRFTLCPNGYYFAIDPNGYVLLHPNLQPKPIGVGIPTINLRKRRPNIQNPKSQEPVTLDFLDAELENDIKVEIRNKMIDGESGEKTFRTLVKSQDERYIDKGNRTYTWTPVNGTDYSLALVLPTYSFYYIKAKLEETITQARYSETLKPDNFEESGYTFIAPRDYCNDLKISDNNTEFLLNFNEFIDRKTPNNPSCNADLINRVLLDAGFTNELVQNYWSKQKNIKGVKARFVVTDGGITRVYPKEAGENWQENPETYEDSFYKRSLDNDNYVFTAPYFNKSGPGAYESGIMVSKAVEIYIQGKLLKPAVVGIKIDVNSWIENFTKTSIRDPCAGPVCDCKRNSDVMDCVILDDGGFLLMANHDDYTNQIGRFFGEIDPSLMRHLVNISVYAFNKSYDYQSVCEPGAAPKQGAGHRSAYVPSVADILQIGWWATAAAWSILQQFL
T1 sequence (P54289 947-1103 partner limits assumed): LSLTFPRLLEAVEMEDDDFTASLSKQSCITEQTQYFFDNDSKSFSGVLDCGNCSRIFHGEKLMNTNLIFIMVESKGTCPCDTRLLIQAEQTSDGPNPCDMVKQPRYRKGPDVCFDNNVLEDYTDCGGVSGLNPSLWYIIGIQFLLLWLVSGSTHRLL
Procedure, shortened: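 IMR-32 cells were differentiated 7–13 days (1 mM dibutyryl cAMP, 2.5 µM BrdU) and Indo-1-loaded. They were preincubated 10 min at 30 °C with compound and 5 µM nitrendipine in HEPES/Tris pH 7.4 HBSS with 0.5% BSA, then KCl/CaCl2-depolarized. The peak-minus-basal 400/490 nm emission ratio gave IC50 by four-parameter logistic fit.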

[2] = test system: DBA/2 mice; assay: In vivo anticonvulsant activity, sound-induced tonic seizures in DBA/2 mice; settings: tested 15 or 45 minutes after injection; for DBA/2 mice % Protection dose @ 30 mg/kg: 30 mg/kg intravenous
Procedure: A compound of the present invention was dissolved in water using 10% (weight/volume) Emulphor (GAF Corp., Wayne, N.J.) surfactant. Substances were administered by intravenous injection into the retro-orbital venous sinus. All testing was performed 15 minutes or 45 minutes after drug injection. All the male mice, 3-4 weeks old were obtained from Jackson Laboratories Bar Harbour, Me. Immediately before anticonvulsant testing, mice were placed upon a wire mesh, 4 inches square suspended from a steel rod. The square was slowly inverted through 180 degrees and mice observed for 30 seconds. Any mouse falling from the wire mesh was scored as ataxia.
Mice were placed into an enclosed acrylic plastic chamber (21 cm height, approximately 30 cm diameter) with a high-frequency speaker (4 cm diameter) in the center of the top lid. An audio signal generator (Protek model B-810) was used to produce a continuous sinusoidal tone that was swept linearly in frequency between 8 kHz and 16 kHz once each 10 msec. The average sound pressure level (SPL) during stimulation was approximately 100 dB at the floor of the chamber. Mice were placed within the chamber and allowed to acclimatize for 1 minute. DBA/2 mice in the vehicle-treated group responded to the sound stimulus (applied until tonic extension occurred, or for a maximum of 60 sec) with a characteristic seizure sequence consisting of wild running followed by clonic seizures, and later by tonic extension, and finally by respiratory arrest and death in 80% or more of the mice. In vehicle-treated mice, the entire sequence of seizures to respiratory arrest lasts approximately 15-20 seconds.
The incidence of all the seizure phases in the drug-treated and vehicle-treated mice was recorded, and the occurrence of tonic seizures were used for calculatine anticonvulsant ED50 values by probit analysis. Mice were used only once for testing at each time and dose point.

[3] = K+ depolarization, 5 μM nitrendipine to block L-type channels, read-out: IMR 32 IC50
[4] = 5 μM nitrendipine, Examples 116-140, read-out: IMR 32% of Blockade @

## CC(C)CC(C(=O)NC(Cc1ccc(OCc2ccccc2)cc1)C(=O)NC(C)(C)C)N(C)C1C=CCCC1 (stereo not drawn) [Example 47, [S-(R*,R*)]-2-(Cyclohex-2-enyl-methyl-amino)-4-methyl-pentanoic acid [2-(4-benzyloxy-phenyl)-1-tert-butylcarbamoyl-ethyl]-amide]
[1]; [3]
  IC50: 280 nM
[2]
  DBA/2 mice % Protection dose @ 30 mg/kg: 100%

## CC(C)=CCNC(CC(C)C)C(=O)NC(Cc1ccc(OCc2ccccc2)cc1)C(=O)OC(C)(C)C (stereo not drawn) [Example 31, [S-(R*,R*)]-3-(4-Benzyloxy-phenyl)-2-[4-methyl-2-(3-methyl-but-2-enylamino)-pentanoylamino]-propionic acid tert-butyl ester]
[1]; [3]
  IC50: 320 nM
[2]
  DBA/2 mice % Protection dose @ 30 mg/kg: 100%

## CC(C)CC(NC(C)C)C(=O)NC(Cc1ccc(OCc2ccccc2)cc1)C(=O)OC(C)(C)C (stereo not drawn) [Example 92, [S-(R*,R*)]-3-(4-Benzyloxy-phenyl)-2-(2-isopropylamino4-methyl-pentanoylamino)-propionic acid tert-butyl ester]
[1]; [3]
  IC50: 800 nM
[2]
  DBA/2 mice % Protection dose @ 30 mg/kg: 100%

## CC(C)C[C@@H](C(=O)N[C@@H](Cc1ccc(OCc2ccccc2)cc1)C(=O)NC(C)(C)C)N(C)CC1CCCCC1 (relative stereo) [Example 25, [S-(R*,R*)]-2-(Cyclohexylmethyl-methyl-amino)-4-methyl-pentanoic acid [2-(4-benzyloxy-phenyl)-1-tert-butylcarbamoyl-ethyl]-amide]
[1]; [3]
  IC50: 670 nM
[2]
  DBA/2 mice % Protection dose @ 30 mg/kg: 100%

## CC(C)CCN(C)[C@@H](CC(C)C)C(=O)N[C@@H](Cc1ccc(OCc2ccccc2)cc1)C(=O)NC(C)(C)C (relative stereo) [Example 7, [S-(R*,R*)]-4-Methyl-2-[methyl-(3-methyl-butyl)-amino]-pentanoic acid [2-(4-benzyloxy-phenyl)-1-tert-butylcarbamoyl-ethyl]-amide]
[1]; [3]
  IC50: 320 nM
[2]
  DBA/2 mice % Protection dose @ 30 mg/kg: 100%

## CC(C)C[C@H](NC1CCCCC1)C(=O)N[C@@H](Cc1ccc(OCc2ccccc2)cc1)C(=O)OC(C)(C)C (relative stereo) [Example 93, [S-(R*,R*)]-3-(4-Benzyloxy-phenyl)-2-(2-cyclohexylamino-4-methyl-pentanoylamino)-propionic acid tert-butyl ester]
[1]; [3]
  IC50: 200 nM
[2]
  DBA/2 mice % Protection dose @ 30 mg/kg: 80%

## CCC(C)N(C)C(CC(C)C)C(=O)NC(Cc1ccc(OCc2ccccc2)cc1)C(=O)NC(C)(C)C (racemic) [Example 103, [S-[R*,R*,(RS)]]-2-(sec-Butyl-methyl-amino)-4-methyl-pentanoic acid [2-(4-benzyloxy-phenyl)-1-tert-butylcarbamoyl-ethyl]-amide]
[1]; [3]
  IC50: 1500 nM
[2]; 10 mg/kg intravenous
  DBA/2 mice % Protection (10 mg/kg): 100%

## CC(C)CCNC(CC(C)C)C(=O)NC(Cc1ccc(OCc2ccccc2)cc1)C(=O)OC(C)(C)C (stereo not drawn) [Example 95, [S-(R*,R*)]-3-(4-Benzyloxy-phenyl)2-[4-methyl-2-(3-methyl-butylamino)-pentanoylamino]-propionic acid tert-butyl ester]
[1]; [3]
  IC50: 460 nM

## COc1ccc(CN(C)[C@@H](CC(C)C)C(=O)N[C@@H](Cc2ccc(OCc3ccccc3)cc2)C(=O)NC(C)(C)C)cc1 (relative stereo) [Example 98, [S-(R*,R*)]-2-[(4-Methoxy-benzyl)-methyl-amino]-4-methyl-pentanoic acid [2-(4-benzyloxy-phenyl)-1-tert-butylcarbamoyl-ethyl]-amide]
[1]; [3]
  IC50: 400 nM

## CC(C)CC(C(=O)NC(Cc1ccc(NCc2ccccc2)cc1)C(=O)NC(C)(C)C)N(C)Cc1ccc(C(C)(C)C)cc1 (stereo not drawn) [Example 55, [S-(R*,R*)]-2-[(4-tert-Butyl-benzyl)-methyl-amino]-4-methyl-pentanoic acid [2-(4-benzylamino-phenyl)-1-tert-butylcarbamoyl-ethyl]-amide]
[1]; [3]
  IC50: 100 nM

## CC(C)C[C@@H](C(=O)N[C@@H](Cc1ccc(OCc2ccccc2)cc1)C(=O)NC(C)CO)N(C)C (relative stereo) [Example 136, [S-(R*,R*)]-2-Dimethylamino-4-methyl-pentanoic acid [2-(4-benzyloxy-phenyl)-1-(2-aminopropan-1-olcarbamoyl)-ethyl]-amide]
[1]; [4]
  IC50: 3600 nM

## CC(C)C[C@@H](C(=O)N[C@@H](Cc1ccc(OCc2ccccc2)cc1)C(=O)NCCN1CCCCC1)N(C)Cc1ccc(C(C)(C)C)cc1 (relative stereo) [Example 15, [S-(R*,R*)]-2-[(4-tert-Butyl-benzyl)-methyl-amino]-4-methyl-pentanoic acid [2-(4-benzyloxy-phenyl)-1-(2-piperidin-1-yl-ethylcarbamoyl)-ethyl]-amide]
[1]; 5 μM nitrendipine
  IMR 32 % of Blockade @ 1 μM: 56%
  IMR 32 % of Blockade @ 10 μM: 80%

## CC(C)C[C@@H](C(=O)N[C@@H](Cc1ccc(OCc2ccccc2)cc1)C(=O)NCCN1CCCC1)N1CCOCC1 (relative stereo) [Example 125, [S-(R*,R*)]-4-Methyl-2-morpholin-4-yl-pentanoic acid [2-(4-benzyloxy-phenyl)-1-(2-pyrrolidin-1-yl-ethylcarbamoyl)-ethyl]-amide]
[1]; [4]
  IC50: 9700 nM

## CC(C)C[C@@H](C(=O)N[C@@H](Cc1ccc(OCc2ccccc2)cc1)C(=O)NCCc1ccccn1)N1CCOCC1 (relative stereo) [Example 120, [S-(R*,R*)]-4-Methyl-2-morpholin-4yl-pentanoic acid [2-(4-benzyloxy-phenyl)-1-(2-pyridin-2-yl-ethylcarbamoyl)-ethyl]-amide]
[1]; [4]
  IC50: 6000 nM

## CC(C)CCN(C)[C@@H](CC(C)C)C(=O)N[C@@H](Cc1ccc(OCc2ccccc2)cc1)C(=O)NC1CCN(Cc2ccccc2)CC1 (relative stereo) [Example 11, [S-(R*,R*)]-4-Methyl-2-[methyl-(3-methyl-butyl)-amino]-pentanoic acid [2-(4-benzyloxy-phenyl)-1-(1-benzyl-piperidin-4-ylcarbamoyl)-ethyl]-amide]
[1]; 5 μM nitrendipine
  IMR 32 % of Blockade @ 1 μM: 70%
  IMR 32 % of Blockade @ 10 μM: 89%

## CCCCN(C)[C@@H](CC(C)C)C(=O)N[C@@H](Cc1ccc(OCc2ccccc2)cc1)C(=O)NC(C)(C)C (relative stereo) [Example 41, [S-(R*,R*)]-2-(Butyl-methyl-amino)-4-methyl-pentanoic acid [2-(4-benzyloxy-phenyl)-1-tert-butylcarbamoyl-ethyl]-amide]
[1]; [3]
  IC50: 280 nM

## CC(C)C[C@@H](C(=O)N[C@@H](Cc1ccc(OCc2ccccc2)cc1)C(=O)N1CCC(O)CC1)N1CCOCC1 (relative stereo) [Example 126, [S-(R*,R*)]4-Methyl-2-morpholin-4-yl-pentanoic acid [2-(4-benzyloxy-phenyl)-1-(4-hydroxypiperidinylcarbamoyl)-ethyl]-amide]
[1]; [4]
  IC50: 6400 nM

## CC(C)CC(C(=O)NC(Cc1ccc(OCc2ccccc2)cc1)C(=O)N1CCN(C)CC1)N(C)CC1CCCCC1 (stereo not drawn) [Example 30, [S-(R*,R*)]-2-(Cyclohexylmethyl-methyl-amino)-4-methyl-pentanoic acid [1-(4-benzyloxy-benzyl)-2-(4-methyl-piperazin-1-yl)-2-oxo-ethyl]-amide]
[1]; [3]
  IC50: 1200 nM

## CC(C)CCNC(C)(C)C(=O)N[C@@H](Cc1ccc(OCc2ccccc2)cc1)C(=O)NC(C)(C)C [Example 104, (S)-N-[2-(4-Benzyloxy-phenyl)-1-tert-butylcarbamoyl-ethyl]-2-(3-methyl-butylamino)-isobutyramide]
[1]; [3]
  IC50: 1300 nM

## CC(C)C[C@@H](C(=O)N[C@@H](Cc1ccc(OCc2ccccc2)cc1)C(=O)NC(C)(C)C)N(C)CC(C)C (relative stereo) [Example 42, [S-(R*,R*)]-2-(Isobutyl-methyl-amino)-4-methyl-pentanoic acid [2-(4-benzyloxy-phenyl)-1-tert-butylcarbamoyl-ethyl]-amide]
[1]; [3]
  IC50: 380 nM

## CC(C)=CCN(C)[C@@H](CC(C)C)C(=O)N[C@@H](Cc1ccc(OCc2ccccc2)cc1)C(=O)NC(C)(C)C (relative stereo) [Example 51, [S-(R*,R*)]4-Methyl-2-[methyl-(3-methyl-but-2-enyl)-amino]-pentanoic acid [2-(4-benzyloxy-phenyl)-1-tert-butylcarbamoyl-ethyl]-amide]
[1]; [3]
  IC50: 1300 nM

## CC(C)C[C@@H](C(=O)N[C@@H](Cc1ccc(OCc2ccccc2)cc1)C(=O)NC1CCN(Cc2ccccc2)CC1)N(C)C (relative stereo) [Example 5, [S-(R*,R*)]-2-Dimethylamino-4-methyl-pentanoic acid [2-(4-benzyloxy-phenyl)-1-(1-benzyl-piperidin-4-yl-carbamoyl)-ethyl]-amide]
[1]; 5 μM nitrendipine
  IMR 32 % of Blockade @ 1 μM: 24%
  IMR 32 % of Blockade @ 10 μM: 81%
